Like-named read-outs stand apart in the source and are kept apart here.
Assays:
[1] = Stability in solution (half-life by HPLC)
Procedure: Compounds were dissolved in DMSO to a concentration of 50 mM. Aliquots were then dispersed into the appropriate medium to give a final concentration of 100 μM in a volume of about 10 ml. […] (to simulate room temperature) or at 37° C. in water, 0.9% NaCl or 5% dextrose. Aliquots were removed from each preparation at intervals to assess their stability (i.e. half-life, T^1/2) which was measured using HPLC analysis. This entailed an isocratic elution using a mobile phase comprising 10% acetonitrile, 90% 0.05M ammonium bicarbonate. The 15 cm column was packed with C8 octyl Spherisorb material. The column was encased in a cooling cabinet which was maintained at 14°-17° C. Standards of freshly prepared solutions were run throughout the analysis period by way of controls.
T^1/2 measurements were read from a semi-logarithmic plot of peak area (y) versus time (x).

ADJ/PC6 tumour = experiment: Antitumour activity towards the ADJ/PC6 tumour in mice; type: in vivo; conditions: for % Inhibition (Tumour wt as % of Control Value): 5 consecutive days, day 30; for T.I.: Example 7 (repeat of Example 6); for ED90: Mus musculus
Excerpt: (§1) The anti-tumour activity of CB 7646 prepared in accordance with Example 1 against ADJ/PC6 tumour in mice were compared with that of trimelamol. An implant of 1 mm^3 of tumour was made on day 1. On day 20, animals bearing tumours of comparative size were placed into groups of 4 and treated with drug on 5 consecutive days, and then left until day 30. Tumours from the treated and controls were dissected and weighed as a measure of tumour growth. Compounds were given in 5% DMSO/dextrose.
(§2) Example 6 was repeated to obtain more precise LD50 values.

[2] = Dimer/polymer formation in solution (overnight standing); type: physicochemical; conditions: aqueous solution, 4-5 mg/ml, overnight (14-16 hours), room temperature
Procedure: (ii) Dimer/polymer Formation in Solution
An aqueous solution of CB7646 and trimelamol in 4ml aliquots at a concentration of 4-5 mg/ml was left to stand overnight (14-16 hours) at room temperature.

[3] = system: Walker 256 rat mammary carcinoma; experiment: MTT cytotoxicity assay, Walker 256; type: cell-based
Procedure: (§3) The cytotoxicity of CB7646 and CB7683 was compared with trimelamol against mammalian tumour cell lines using the MTT assay. […] Cell lines were grown in culture with continual drug exposure. […] Figures in parenthesis refer to standard deviation or ± values for 2 or more measurements.

[4] = system: CH1 human epithelial ovarian cancer; experiment: MTT cytotoxicity assay, CH1; type: cell-based; conditions: continual drug exposure, parenthesis = standard deviation or ± values
Procedure: (§4) The cytotoxicity of CB7646 and CB7683 was compared with trimelamol against mammalian tumour cell lines using the MTT assay. This assay is based upon the selective ability of living but not dead cells to reduce the tetrazolium salt MTT (3-[4,5-dimethylthiazol-2-yl]-25-diphenyl tetrazolium bromide) to purple formazan (Mosmann et al, 1983, J. Immun. Methods 65; 55-63; Carmichael et al (1987) Cancer Res. 47; 936-942). Cell lines were grown in culture with continual drug exposure. The IC50 values (in μm) of the compounds (i.e. concentration giving 50% inhibition of cell growth as compared with untreated control) were determined, and are shown in Table 2. Figures in parenthesis refer to standard deviation or ± values for 2 or more measurements.
CH1, 41M human epithelial ovarian cancer

[5] = system: H69 human small cell lung cancer; experiment: MTT cytotoxicity assay, H69; type: cell-based
Procedure: as §3

PXN65 Xenografts = experiment: In vivo activity against PXN65 ovarian cancer xenografts; set-up: species or system mice; conditions: for time to tumour regression: treated mice
Procedure: CB7646 was tested in vivo against ovarian cancer xenografts of the PXN65 cell line transplanted into mice, substantially in accordance with Harrap et al, Annals of Oncology, 1990, 1;65-76. PXN65 is a cisplatin-sensitive line.

Lethality (LD50) in mice = conditions: mouse, in vivo
Excerpt: as §1, §2

PC6 murine plasmacytoma = experiment: MTT cytotoxicity assay, PC6; type: cell-based; conditions: Mus musculus, continual drug exposure, parenthesis = standard deviation or ± values
Procedure: as §4
PC6 murine plasmacytoma

[6] = Judson et al 1989, 1991; cited from earlier work
ovarian carcinomas = conditions: cited from earlier work
[7] = ADJ/PC6, Example 7 (repeat of Example 6)
[8] = WALKER 256, MTT, continual drug exposure, parenthesis = standard deviation or ± values, read-out: IC50
[9] = MTT, continual drug exposure, parenthesis = standard deviation or ± values, read-out: IC50
[10] = Example 7 (repeat of Example 6)

CNc1nc(N(C)CO)nc(N(C)CO)n1 [CB7646, 2,4-Bis[(hydroxymethyl) (methyl)amino]6-methylamino-1,3,5-triazine]
half-life at 100 µM ([1]; 0.9% nacl, pH 5, T^1/2, 0.9% NaCl, pH 5.0, r.t.): 960 min
half-life at 100 µM ([1]; 5% dextrose, pH 4, T^1/2, 5% Dextrose, pH 4.0, r.t.): 1320 min
half-life at 100 µM ([1]; deionised water, pH 7.5, T^1/2, Deionised water, pH 7.5, r.t.): 1080 min
half-life at 100 µM ([1]; deionised water, pH 7.5, T^1/2, deionised water, pH 7.5, 37 °C): 180 min
stability (summary of Table 1) ([1]; relative to trimelamol): superior stability
% Inhibition (Tumour wt as % of Control Value) (ADJ/PC6 tumour; 3.25 mg/kg): 5.6%
% Inhibition (Tumour wt as % of Control Value) (ADJ/PC6 tumour; 6.25 mg/kg): -1.0%
% Inhibition (Tumour wt as % of Control Value) (ADJ/PC6 tumour; 12.5 mg/kg): 13.7%
% Inhibition (Tumour wt as % of Control Value) (ADJ/PC6 tumour; 25 mg/kg): 5.6%
% Inhibition (Tumour wt as % of Control Value) (ADJ/PC6 tumour; 50 mg/kg): 76.8%
% Inhibition (Tumour wt as % of Control Value) (ADJ/PC6 tumour; 100 mg/kg): 98.0%
Therapeutic Index (TI) (ADJ/PC6 tumour; ADJ/PC6 tumour, Example 6): > 1.4
T.I. (ADJ/PC6 tumour): 4.6
ED90 (ADJ/PC6 tumour; ADJ/PC6, ADJ/PC6 tumour, Example 6): 74 mg/kg
ED90 (ADJ/PC6 tumour; [7]): 31 mg/kg
Dimer/polymer formation (precipitate) [2]: did not form a precipitate
IC50 [3, 8]: 10.7 µM
IC50 ([3]; Walker 256, CB7646 prepared by recrystallisation method of Example 2, read-out: IC50 (repeat, recrystallised preparation)): 10.5 µM
IC50 [4]: 35.8 µM
IC50 ([5]; CB7646 prepared by recrystallisation method of Example 2, read-out: IC50 (repeat, recrystallised preparation)): 16.5 µM
IC50 [5, 9]: 14.7 µM
Deaths (PXN65 Xenografts; 15 mg/kg, 20 doses): 0
GD (Growth delay) (PXN65 Xenografts; 15 mg/kg, 20 doses): > 140 days
efficacy (summary) (PXN65 Xenografts; PXN65 xenografts, relative to trimelamol): comparable efficacy to trimelamol
time to tumour regression (PXN65 Xenografts; PXN65 xenografts): ≤ 28 days
LD50 (Lethality (LD50) in mice; Example 6): > 100 mg/kg
LD50 (Lethality (LD50) in mice; [10]): 142 mg/kg
IC50 (PC6 murine plasmacytoma): 25.1 µM

OCN(CC(F)(F)F)c1nc(NCC(F)(F)F)nc(N(CO)CC(F)(F)F)n1 [CB7683, 2,4-Bis[(hydroxymethyl)(2,2,2 trifluoroethyl)amino]-6-(2,2,2-trifluoroethyl)amino-1,3,5-triazine]
IC50 [4]: 40.9 µM
IC50 [5, 9]: 8.9 µM
IC50 (PC6 murine plasmacytoma): 31.6 µM

CN(CO)c1nc(N(C)CO)nc(N(C)CO)n1 [Trimelamol, 2,4,6-tris{(hydroxymethyl) (methyl)amino}-1,3,5-triazine, reference compound]
polymerisation during Phase I and II clinical trials [6]: proved problematic
half-life at 100 µM ([1]; 0.9% nacl, pH 4.9): 273 min
half-life at 100 µM ([1]; 5% dextrose, pH 4): 348 min
half-life at 100 µM ([1]; deionised water, pH 7.5): 120 min
% Inhibition (Tumour wt as % of Control Value) (ADJ/PC6 tumour; 3.25 mg/kg): 0%
% Inhibition (Tumour wt as % of Control Value) (ADJ/PC6 tumour; 6.25 mg/kg): 18.2%
% Inhibition (Tumour wt as % of Control Value) (ADJ/PC6 tumour; 12.5 mg/kg): 13.7%
% Inhibition (Tumour wt as % of Control Value) (ADJ/PC6 tumour; 25 mg/kg): 45.5%
% Inhibition (Tumour wt as % of Control Value) (ADJ/PC6 tumour; 50 mg/kg): 83.9%
% Inhibition (Tumour wt as % of Control Value) (ADJ/PC6 tumour; 100 mg/kg): 96.0%
T.I. (ADJ/PC6 tumour): 2.9
ED90 (ADJ/PC6 tumour; [7]): 24 mg/kg
Dimer/polymer formation (precipitate) [2]: formed a heavy precipitate
IC50 [3, 8]: 9.4 µM
IC50 [4]: 23.4 µM
IC50 [5, 9]: 8.5 µM
Deaths (PXN65 Xenografts; 15 mg/kg, 20 doses): 0
GD (Growth delay) (PXN65 Xenografts; 15 mg/kg, 20 doses): > 170 days
Deaths (PXN65 Xenografts; 30 mg/kg, 5 doses): 0
GD (Growth delay) (PXN65 Xenografts; 30 mg/kg, 5 doses): > 273 days
time to tumour regression (PXN65 Xenografts; PXN65 xenografts): ≤ 28 days
LD50 (Lethality (LD50) in mice; [10]): 70 mg/kg
IC50 (PC6 murine plasmacytoma): 12.9 µM
half-life of trimelamol activity in humans (ovarian carcinomas; humans, Judson et al 1989): short
clinical activity (ovarian carcinomas; particularly against ovarian carcinomas): clinically active

— patent US5854244A, “Melamine derivatives for use in the treatment of cancer” (priority 1992, dated 1998)
